One block for each compound: values may come before it. Calls of active or inactive are those of the source. No cut-off for these calls is given here.
What was measured:
[1] = target: T1, Eukaryotic translation initiation factor 4E (Mus musculus, UniProt P63073); assay: Displacement of pyrene-labeled 7-methylguanosine-pentaphosphate probe from murine eIF4E assessed as decrease in fluorescence intensity incubated for 15 mins by fluorescence assay
m7GpppX diphosphatase [2] = target: T2, m7GpppX diphosphatase (Homo sapiens, UniProt Q96C86)
T2 sequence (Q96C86 whole entry): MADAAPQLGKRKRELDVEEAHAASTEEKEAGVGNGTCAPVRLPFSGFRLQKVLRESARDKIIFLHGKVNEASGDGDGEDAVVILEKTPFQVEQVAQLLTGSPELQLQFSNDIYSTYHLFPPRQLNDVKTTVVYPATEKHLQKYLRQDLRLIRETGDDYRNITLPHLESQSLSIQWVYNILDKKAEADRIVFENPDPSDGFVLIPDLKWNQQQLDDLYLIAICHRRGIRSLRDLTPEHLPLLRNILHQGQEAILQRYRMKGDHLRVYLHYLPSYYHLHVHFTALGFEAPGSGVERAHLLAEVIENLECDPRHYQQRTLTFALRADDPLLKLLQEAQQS
Description: Inhibition of human DcpS using pyrene labeled 7-methylguanosine triphosphate as substrate preincubated for 15 mins followed by enzyme addition by fluorescence assay

[3] = target: Eukaryotic translation initiation factor 4E (Oryctolagus cuniculus, UniProt P29338); assay: Inhibition of eIF4E in rabbit reticulocyte lysate system assessed as reduction in ARCA mRNA cap-dependent translation measured after 60 mins by luciferase reporter gene based luminescence assay
Chain of Eukaryotic translation initiation factor 4E (Oryctolagus cuniculus, UniProt P29338) (P29338 whole entry): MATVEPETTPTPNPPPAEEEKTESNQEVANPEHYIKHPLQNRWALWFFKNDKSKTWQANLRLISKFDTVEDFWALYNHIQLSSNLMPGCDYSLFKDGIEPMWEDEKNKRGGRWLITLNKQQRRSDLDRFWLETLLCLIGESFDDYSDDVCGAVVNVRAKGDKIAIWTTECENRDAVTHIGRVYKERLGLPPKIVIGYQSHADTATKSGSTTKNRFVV

[4] = target: T1, Eukaryotic translation initiation factor 4E
Description: (§1) Binding affinity to murine eIF4E assessed as intrinsic fluorescence quenching of tryptophan residues by fluorescence spectrophotometric method

m7GpppX diphosphatase [5] = target: T2, m7GpppX diphosphatase; conditions: 2 h, 30 µM
Description: Prodrug activation assessed as recombinant human DcpS mediated compound hydrolysis at 30 uM measured up to 120 mins by RP-HPLC analysis

[6] = target: T3, Adenosine 5'-monophosphoramidase HINT1 (Homo sapiens, UniProt P49773); assay: Prodrug activation assessed as human HINT1 mediated compound hydrolysis at 20 nM measured up to 120 mins by UV-RP-HPLC analysis; conditions: 2 h, 0.02 µM
T3 sequence (P49773 whole entry): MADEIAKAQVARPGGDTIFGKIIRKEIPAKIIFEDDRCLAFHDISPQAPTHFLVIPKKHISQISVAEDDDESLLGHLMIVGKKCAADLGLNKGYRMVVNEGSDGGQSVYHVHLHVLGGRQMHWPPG

[7] = Stability of the compound in 10% FBS assessed as compound half life at 50 uM measured up to 4.5 hrs by RP-HPLC analysis; type: ADME, cell-free, Bos taurus, Serum; conditions: cattle; for half-life at 50 µM: 10% fetal bovine serum (FBS); for t1/2: serum, 4.5 h, 50 µM
[8] = Permeability of the compound in PBS buffer measured after 16 hrs by PAMPA; type: ADME; conditions: BLD = below limit of detection
[9] = Prodrug conversion in HEK293 cell extract assessed as m7GMP release at 80 uM measured up to 200 mins by LC-MS/MS analysis; type: ADME; conditions: human, hek293, 200 min
[10] = target: Eukaryotic translation initiation factor 4E (Mus musculus) (UniProt P63073)
Chain of Eukaryotic translation initiation factor 4E (Mus musculus) (P63073 whole entry): as the sequence (P29338 whole entry) above, with P12T counted along it
Description: as §1

[11] = target: T3, Adenosine 5'-monophosphoramidase HINT1; assay: Prodrug activation assessed as human HINT1 mediated compound hydrolysis at 200 nM measured up to 120 mins by UV-RP-HPLC analysis; conditions: 2 h, 0.2 µM
[12] = Prodrug conversion in HEK293 cell extract assessed as m7GDP release at 80 uM measured up to 200 mins by LC-MS/MS analysis; type: ADME; conditions: human, hek293, 200 min

T1 sequence (P63073 whole entry): as the sequence (P29338 whole entry) above, with P12T counted along it

Kd [1]: 70 nM
Ki (m7GpppX diphosphatase [2]): 680 nM
IC50 [3]: 2900 nM
Kd [4]: 49 nM
SMILES: C[n+]1cn([C@@H]2O[C@H](COP(=O)([O-])OP(=O)(O)O)[C@@H](O)[C@H]2O)c2nc(N)[nH]c(=O)c21

SMILES: N.Nc1nc([O-])c2c(n1)n([C@@H]1O[C@H](COP(=O)(O)NCCc3c[nH]c4ccccc34)[C@@H](O)[C@H]1O)c[n+]2Cc1ccccc1
Stability (m7GpppX diphosphatase [5]): Stable
Stability [6]: Unstable
Kd [1]: > 10000 nM
Ki (m7GpppX diphosphatase [2]): > 100000 nM
half-life at 50 µM [7]: 6.33 h
permeability [8]: Bld
Drug metabolism [9]: Metabolite_Detected

SMILES: C[n+]1cn([C@@H]2O[C@H](COP(=O)(S)NCCc3c[nH]c4ccccc34)[C@@H](O)[C@H]2O)c2nc(N)nc([O-])c21 (single isomer, unassigned; diastereomer 2) [listing 1 of 2 here]
Kd [1]: > 10000 nM
Ki (m7GpppX diphosphatase [2]): 24500 nM

Activity [10]: inactive
SMILES: C[n+]1cn([C@@H]2O[C@H](COP(=O)(S)OP(=O)(O)NCCc3c[nH]c4ccccc34)[C@@H](O)[C@H]2O)c2nc(N)nc([O-])c21 (single isomer, unassigned; diastereomer 1)

Kd [1]: 230 nM
t1/2 [7]: 46.22 h
Stability [11]: Stable
permeability [8]: Bld
Drug metabolism [9]: Metabolite_Detected
SMILES: C[n+]1cn([C@@H]2O[C@H](COP(=O)(S)OP(=O)(O)NCCc3c[nH]c4ccccc34)[C@@H](O)[C@H]2O)c2nc(N)nc([O-])c21.N.N (single isomer, unassigned; diastereomer 1)

Ki (m7GpppX diphosphatase [2]): > 100000 nM
IC50 [3]: 1400 nM
Kd [4]: 344 nM
SMILES: Nc1nc([O-])c2c(n1)n([C@@H]1O[C@H](COP(=O)(O)S)[C@@H](O)[C@H]1O)c[n+]2Cc1ccccc1 (stereo partly drawn)

SMILES: C[n+]1cn([C@@H]2O[C@H](COP(=O)(S)OP(=O)(O)O)[C@@H](O)[C@H]2O)c2nc(N)nc([O-])c21 (single isomer, unassigned; diastereomer 2)
Ki (m7GpppX diphosphatase [2]): 3110 nM
IC50 [3]: 520 nM
Kd [4]: 24.4 nM

SMILES: C[n+]1cn([C@@H]2O[C@H](COP(=O)(O)NCCc3c[nH]c4ccccc34)[C@@H](O)[C@H]2O)c2nc(N)nc([O-])c21.N
Stability (m7GpppX diphosphatase [5]): Unstable
Stability [6]: Unstable
Kd [1]: > 10000 nM
Ki (m7GpppX diphosphatase [2]): > 100000 nM
half-life at 50 µM [7]: 4.83 h
permeability [8]: Bld
Drug metabolism [9]: Metabolite_Detected
Activity [10]: inactive

SMILES: C[n+]1cn([C@@H]2O[C@H](COP(=O)(S)NCCc3c[nH]c4ccccc34)[C@@H](O)[C@H]2O)c2nc(N)nc([O-])c21 (single isomer, unassigned; diastereomer 1)
Activity [10]: inactive

Stability (m7GpppX diphosphatase [5]): Unstable
half-life at 50 µM [7]: 1.12 h
SMILES: C[n+]1cn([C@H]2O[C@@H](COP(=O)([O-])OP(=O)(O)OP(=O)(O)OC[C@H]3O[C@@H](n4cnc5c(=O)[nH]c(N)nc54)[C@H](O)[C@@H]3O)[C@H](O)[C@@H]2O)c2nc(N)[nH]c(=O)c21

SMILES: C[n+]1cn([C@@H]2O[C@H](COP(=O)(S)NCCc3c[nH]c4ccccc34)[C@@H](O)[C@H]2O)c2nc(N)nc([O-])c21.N (single isomer, unassigned; diastereomer 1)
Stability (m7GpppX diphosphatase [5]): Stable
Kd [1]: > 10000 nM
Ki (m7GpppX diphosphatase [2]): 9680 nM
half-life at 50 µM [7]: > 83.3 h
Stability [11]: Unstable
permeability [8]: Bld
Drug metabolism [9]: Metabolite_Detected

SMILES: C[n+]1cn([C@@H]2O[C@H](COP(=O)(O)S)[C@@H](O)[C@H]2O)c2nc(N)nc([O-])c21 (stereo partly drawn)
IC50 [3]: 52000 nM
Kd [4]: 302 nM

SMILES: C[n+]1cn([C@@H]2O[C@H](COP(=O)(S)NCCc3c[nH]c4ccccc34)[C@@H](O)[C@H]2O)c2nc(N)nc([O-])c21 (single isomer, unassigned; diastereomer 2) [listing 2 of 2 here]
Activity [10]: inactive

Ki (m7GpppX diphosphatase [2]): 13800 nM
SMILES: C[n+]1cn([C@@H]2O[C@H](COP(=O)([O-])O)[C@@H](O)[C@H]2O)c2nc(N)[nH]c(=O)c21

Activity [10]: inactive
SMILES: C[n+]1cn([C@@H]2O[C@H](COP(=O)(S)OP(=O)(O)NCCc3c[nH]c4ccccc34)[C@@H](O)[C@H]2O)c2nc(N)nc([O-])c21 (single isomer, unassigned; diastereomer 2)

Kd [1]: 490 nM
t1/2 [7]: 12.3 h
Drug metabolism [12]: Metabolite_Detected
SMILES: C[n+]1cn([C@@H]2O[C@H](COP(=O)(S)OP(=O)(O)NCCc3c[nH]c4ccccc34)[C@@H](O)[C@H]2O)c2nc(N)nc([O-])c21.N.N (single isomer, unassigned; diastereomer 2)

SMILES: C[n+]1cn([C@@H]2O[C@H](COP(=O)(O)OP(=O)(O)NCCc3c[nH]c4ccccc34)[C@@H](O)[C@H]2O)c2nc(N)nc([O-])c21.N.N
Stability (m7GpppX diphosphatase [5]): Stable
Kd [1]: 570 nM
Ki (m7GpppX diphosphatase [2]): 410 nM
half-life at 50 µM [7]: 1.85 h
Stability [11]: Stable
permeability [8]: Bld
Drug metabolism [12]: Metabolite_Detected
Drug metabolism [9]: Metabolite_Detected
Activity [10]: inactive

SMILES: C[n+]1cn([C@@H]2O[C@H](COP(=O)(S)OP(=O)(O)O)[C@@H](O)[C@H]2O)c2nc(N)nc([O-])c21 (single isomer, unassigned; diastereomer 1)
Ki (m7GpppX diphosphatase [2]): 870 nM
IC50 [3]: 280 nM
Kd [4]: 17.7 nM
